The target in the assay is HCV RdRp (NS5B) (UniProt P26663). Format: biochemical, hepatitis C virus.

Each structure is given as a SMILES string. A value given as a limit tells only on which side of the number the result lay.

HCV RdRp (NS5B), sequence (P26663 whole entry, looked up): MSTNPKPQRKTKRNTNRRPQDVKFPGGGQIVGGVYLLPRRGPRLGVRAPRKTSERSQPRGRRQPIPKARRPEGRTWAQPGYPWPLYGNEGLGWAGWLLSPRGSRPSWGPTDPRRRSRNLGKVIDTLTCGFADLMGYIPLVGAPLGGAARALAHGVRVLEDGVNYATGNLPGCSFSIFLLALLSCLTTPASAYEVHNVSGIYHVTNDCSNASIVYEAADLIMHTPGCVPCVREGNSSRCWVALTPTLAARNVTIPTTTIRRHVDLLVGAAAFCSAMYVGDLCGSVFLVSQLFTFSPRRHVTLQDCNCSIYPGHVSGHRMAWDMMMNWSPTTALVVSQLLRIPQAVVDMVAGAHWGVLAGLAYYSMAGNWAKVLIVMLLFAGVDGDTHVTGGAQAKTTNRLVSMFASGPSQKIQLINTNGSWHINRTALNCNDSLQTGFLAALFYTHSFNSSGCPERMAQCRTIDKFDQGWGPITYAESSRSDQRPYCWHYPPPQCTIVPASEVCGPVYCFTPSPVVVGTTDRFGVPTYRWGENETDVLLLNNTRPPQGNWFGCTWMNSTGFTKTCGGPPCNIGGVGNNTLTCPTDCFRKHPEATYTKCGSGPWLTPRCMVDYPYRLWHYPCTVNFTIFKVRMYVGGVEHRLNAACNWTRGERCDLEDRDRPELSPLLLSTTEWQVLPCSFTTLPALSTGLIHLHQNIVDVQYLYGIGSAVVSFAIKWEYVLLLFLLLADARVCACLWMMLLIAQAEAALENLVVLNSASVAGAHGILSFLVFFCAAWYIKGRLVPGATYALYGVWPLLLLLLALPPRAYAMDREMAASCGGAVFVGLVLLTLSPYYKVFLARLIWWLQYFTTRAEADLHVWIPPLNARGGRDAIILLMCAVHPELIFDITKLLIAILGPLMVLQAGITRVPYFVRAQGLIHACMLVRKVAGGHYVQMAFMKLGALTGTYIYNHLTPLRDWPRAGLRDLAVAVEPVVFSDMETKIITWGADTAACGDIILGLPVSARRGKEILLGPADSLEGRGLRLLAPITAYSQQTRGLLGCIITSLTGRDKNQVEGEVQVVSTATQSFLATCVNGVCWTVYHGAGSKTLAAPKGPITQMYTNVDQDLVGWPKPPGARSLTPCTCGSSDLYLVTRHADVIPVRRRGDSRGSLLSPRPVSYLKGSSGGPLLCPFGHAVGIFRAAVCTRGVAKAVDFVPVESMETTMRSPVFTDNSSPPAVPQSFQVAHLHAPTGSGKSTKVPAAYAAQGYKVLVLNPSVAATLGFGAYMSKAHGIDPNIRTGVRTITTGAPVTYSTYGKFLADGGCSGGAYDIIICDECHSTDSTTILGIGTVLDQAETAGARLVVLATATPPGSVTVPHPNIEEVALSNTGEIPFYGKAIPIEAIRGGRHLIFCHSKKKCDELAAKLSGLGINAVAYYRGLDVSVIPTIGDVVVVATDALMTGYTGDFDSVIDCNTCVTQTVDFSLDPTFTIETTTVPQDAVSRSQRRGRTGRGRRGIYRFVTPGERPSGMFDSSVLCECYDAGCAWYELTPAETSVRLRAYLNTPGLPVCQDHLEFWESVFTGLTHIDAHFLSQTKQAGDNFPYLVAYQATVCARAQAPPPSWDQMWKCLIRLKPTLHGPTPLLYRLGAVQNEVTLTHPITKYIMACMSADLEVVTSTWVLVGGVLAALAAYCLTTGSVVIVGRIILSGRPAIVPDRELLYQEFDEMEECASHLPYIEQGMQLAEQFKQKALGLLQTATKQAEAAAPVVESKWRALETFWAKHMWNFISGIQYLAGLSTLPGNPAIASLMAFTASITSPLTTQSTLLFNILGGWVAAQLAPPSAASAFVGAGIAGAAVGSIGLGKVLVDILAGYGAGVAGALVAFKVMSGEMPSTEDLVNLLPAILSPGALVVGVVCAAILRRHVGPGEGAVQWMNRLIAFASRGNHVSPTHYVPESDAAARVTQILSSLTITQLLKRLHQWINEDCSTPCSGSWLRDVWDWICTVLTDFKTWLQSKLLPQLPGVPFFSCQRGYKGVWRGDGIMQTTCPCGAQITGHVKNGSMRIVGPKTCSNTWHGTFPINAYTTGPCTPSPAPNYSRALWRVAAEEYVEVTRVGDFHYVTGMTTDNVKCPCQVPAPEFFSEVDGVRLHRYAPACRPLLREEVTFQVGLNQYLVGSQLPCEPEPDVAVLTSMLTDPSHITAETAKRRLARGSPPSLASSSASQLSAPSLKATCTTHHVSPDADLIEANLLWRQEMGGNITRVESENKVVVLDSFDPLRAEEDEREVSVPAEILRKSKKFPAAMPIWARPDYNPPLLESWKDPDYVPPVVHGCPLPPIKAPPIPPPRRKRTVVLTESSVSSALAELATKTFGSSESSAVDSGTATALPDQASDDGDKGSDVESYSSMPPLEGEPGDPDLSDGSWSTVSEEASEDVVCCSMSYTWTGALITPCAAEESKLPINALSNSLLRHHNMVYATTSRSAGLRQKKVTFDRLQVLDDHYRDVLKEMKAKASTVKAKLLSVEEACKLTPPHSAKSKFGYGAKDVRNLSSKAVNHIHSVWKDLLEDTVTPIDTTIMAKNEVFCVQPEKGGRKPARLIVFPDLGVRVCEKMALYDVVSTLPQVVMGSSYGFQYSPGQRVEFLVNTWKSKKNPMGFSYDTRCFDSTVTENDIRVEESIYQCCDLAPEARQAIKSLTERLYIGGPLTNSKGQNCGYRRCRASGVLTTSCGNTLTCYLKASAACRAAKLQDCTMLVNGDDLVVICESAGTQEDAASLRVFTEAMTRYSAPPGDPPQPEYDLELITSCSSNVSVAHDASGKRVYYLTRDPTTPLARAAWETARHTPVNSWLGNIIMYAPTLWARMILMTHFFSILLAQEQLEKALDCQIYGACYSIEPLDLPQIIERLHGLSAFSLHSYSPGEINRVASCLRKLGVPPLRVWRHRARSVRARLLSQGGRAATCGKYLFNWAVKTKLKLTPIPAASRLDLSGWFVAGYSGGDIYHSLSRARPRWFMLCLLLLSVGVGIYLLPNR

One may read the IC50 as the concentration that gives 50% inhibition. On to `Cc1ccc(NC(=O)[C@H](CCCN)NC(=O)Nc2ccc(OCc3ccccc3)cc2)cc1` [Compound 189, (S)-5-AMINO-2-[3-(4-BENZYLOXY-PHENYL)-UREIDO]-PENTANOIC ACID P-TOLYLAMIDE], for which the IC50 is > 50 µM.
For the molecule `Cc1ccc(NC(=O)C(NC(=O)OCC2c3ccccc3-c3ccccc32)C(C)O)cc1` [Compound 377, (2+/−,3R)-(2-HYDROXY-1-P-TOLYLCARBAMOYL-PROPYL)-CARBAMIC ACID 9H-FLUOREN-9-YLMETHYL ESTER], the IC50 was > 50 µM.
To `Cc1ccc(NC(=O)C(CCCN)NC(=O)Nc2ccc(-c3ccccc3)cc2)cc1` [Compound 188, (S)-5-AMINO-2-(3-BIPHENYL-4-YL-UREIDO)-PENTANOIC ACID P-TOLYLAMIDE] belongs > 50 µM; to `Cc1ccc(NC(=O)[C@@H](CCCCN)NC(=O)NCc2ccc(Cl)c(Cl)c2)cc1` [Compound 170, (R)-6-AMINO-2-[3-(3,4-DICHLORO-BENZYL)-UREIDO]-HEXANOIC ACID P-TOLYLAMIDE], > 50 µM; to `Cc1ccc(NC(=O)C(CCCCN)NC(=O)CNCc2ccccc2C)cc1` [Compound 338, (S)-6-AMINO-2-[2-(2-METHYL-BENZYLAMINO)-ACETYLAMINO]-HEXANOIC ACID P-TOLYLAMIDE], > 50 µM.
The value for `O=C(CC1CNCCN1C(=O)OCC1c2ccccc2-c2ccccc21)Nc1ccc(C2CCCCC2)cc1` (stereo not shown) [Compound 155, 2-[(4-CYCLOHEXYL-PHENYLCARBAMOYL)-METHYL]-PIPERAZINE-1-CARBOXYLIC ACID 9H-FLUOREN-9-YLMETHYL ESTER] was 10 to 50 µM.
To `Cc1ccc(NC(=O)[C@H](CCCCN)NC(=O)Nc2ccc(OCc3cccc(F)c3F)cc2)cc1` [Compound 284, (S)-6-AMINO-2-{3-[4-(2,3-DIFLUORO-BENZYLOXY)-PHENYL]-UREIDO}-HEXANOIC ACID P-TOLYLAMIDE] belongs 10 to 50 µM; to `Cc1ccc(NC(=O)C(CCNC(=O)CCN)NC(=O)OCC2c3ccccc3-c3ccccc32)cc1` [Compound 179, (S)-[3-(3-AMINO-PROPIONYLAMINO)-1-P-TOLYLCARBAMOYL-PROPYL]-CARBAMIC ACID 9H-FLUOREN-9-YLMETHYL ESTER], 10 to 50 µM.
As for `O=C(N[C@@H](Cc1ccccc1)C(=O)Nc1ccc(CN(C(=O)c2ccco2)C2CCCCC2)cc1)OCC1c2ccccc2-c2ccccc21` [Compound 29, (S)-[1-(4-{[CYCLOHEXYL-(FURAN-2-CARBONYL)-AMINO]-METHYL}-PHENYL CARBAMOYL)-2-PHENYL-ETHYL]-CARBAMIC ACID 9H-FLUOREN-9-YLMETHYL ESTER], the IC50 is > 50 µM.
The value for `Cc1ccc(NC(=O)C(CCC(=O)O)NC(=O)OCC2c3ccccc3-c3ccccc32)cc1` [Compound 373, (R)-4-(9H-FLUOREN-9-YLMETHOXYCARBONYLAMINO)-4-P-TOLYLCARBAMOYL-BUTYRIC ACID] was > 50 µM.
To `CC(=O)c1cccc(NC(=O)[C@H](CCCCN)NC(=O)OCC2c3ccccc3-c3ccccc32)c1` [Compound 219, (S)-[1-(3-ACETYL-PHENYLCARBAMOYL)-5-AMINO-PENTYL]-CARBAMIC ACID 9H-FLUOREN-9-YLMETHYL ESTER] belongs > 50 µM; to `O=C(CC1CNCCN1C(=O)NCc1ccccc1)Nc1ccc(C2CCCCC2)cc1` (stereo not shown) [Compound 158, 2-[(4-CYCLOHEXYL-PHENYLCARBAMOYL)-METHYL]-PIPERAZINE-1-CARBOXYLIC ACID BENZYLAMIDE], 10 to 50 µM; to `CSCCC(NC(=O)OCC1c2ccccc2-c2ccccc21)C(=O)Nc1ccc(C)cc1` (stereo not shown) [Compound 383], > 50 µM.
The value for `O=C(Nc1ccc(C2CCCCC2)cc1)C1CNCCN1C(=O)OCC1c2ccccc2-c2ccccc21` (racemic) [Compound 156, (+/−)-2-(4-CYCLOHEXYL-PHENYLCARBAMOYL)-PIPERAZINE-1-CARBOXYLIC ACID 9H-FLUOREN-9-YLMETHYL ESTER] was > 50 µM; that for `Cc1ccc(NC(=O)C(CCCCN)NC(=O)Nc2ccc(Cc3ccccc3)cc2)cc1` [Compound 74, (S)-6-AMINO-2-[3-(4-BENZYL-PHENYL)-UREIDO]-HEXANOIC ACID P-TOLYLAMIDE] was 10 to 50 µM.
With `Cc1ccc(NC(=O)[C@@H](N)CCCCN)cc1` [Compound 114, (S)-2,6-DIAMINO-HEXANOIC ACID P-TOLYLAMIDE], the IC50 was > 50 µM.
`O=C(CC1CNCCN1C(=O)Nc1ccc(-c2ccccc2)cc1)Nc1ccc(C2CCCCC2)cc1` (stereo not shown) [Compound 161, 2-[(4-CYCLOHEXYL-PHENYLCARBAMOYL)-METHYL]-PIPERAZINE-1-CARBOXYLIC ACID BIPHENYL-4-YLAMIDE] yielded an IC50 of 10 to 50 µM.
Regarding `Cc1ccc(NC(=O)[C@H](CCCCN)NC(=O)Nc2ccc(OCc3cc(F)ccc3F)cc2)cc1` [Compound 286, (S)-6-AMINO-2-{3-[4-(2,5-DIFLUORO-BENZYLOXY)-PHENYL]-UREIDO}-HEXANOIC ACID P-TOLYLAMIDE], the IC50 is < 10 µM.
As to `NCCCC[C@H](NC(=O)Nc1ccc(OCc2ccccc2)cc1)C(=O)Nc1cccc2c1CCC2` [Compound 321, (S)-6-AMINO-2-[3-(4-BENZYLOXY-PHENYL)-UREIDO]-HEXANOIC ACID INDAN-4-YLAMIDE], the concentration for half-maximal inhibition (IC50) is < 10 µM.
The value for `Cc1ccc(NC(=O)[C@H](CCCCN)NS(=O)(=O)c2ccc(Cl)c(Cl)c2)cc1` [Compound 392, (S)-6-AMINO-2-(3,4-DICHLORO-BENZENESULFONYLAMINO)-HEXANOIC ACID P-TOLYLAMIDIE] was > 50 µM; that for `Cc1ccc(NC(=O)C(CCCCN)NS(=O)(=O)c2ccc(-c3ccccc3)cc2)cc1` [Compound 70, (S)-6-AMINO-2-(BIPHENYL-4-SULFONYLAMINO)-HEXANOIC ACID P-TOLYLAMIDE] was > 50 µM.
For `NCCCC[C@H](NC(=O)[C@@H](N)Cc1c[nH]c2ccccc12)C(=O)Nc1ccc(CN(C(=O)c2ccco2)C2CCCCC2)cc1` [Compound 23, (S)-FURAN-2-CARBOXYLIC ACID (4-{6-AMINO-2-[2-(S)-AMINO-3-(1H-INDOL-3-YL)-PROPIONYLAMINO]-HEXANOYLAMINO}-BENZYL)-CYCLOHEXYL-AMIDE], the IC50 is 10 to 50 µM.
As for `Cc1ccc(NC(=O)[C@H](CCCCN)NC(=O)Nc2ccc(OCc3ccc(F)cc3)cc2)cc1` [Compound 250, (S)-6-AMINO-2-{3-[4-(4-FLUORO-BENZYLOXY)-PHENYL]-UREIDO}-HEXANOIC ACID P-TOLYLAMIDE], the IC50 lay within 10 to 50 µM.
In turn, `COc1cccc(NCC(=O)N[C@@H](CCCCN)C(=O)Nc2ccc(C)cc2)c1` [Compound 358, (S)-6-AMINO-2-[2-(3-METHOXY-PHENYLAMINO)-ACETYLAMINO]-HEXANOIC ACID P-TOLYLAMIDE] showed an IC50 of 10 to 50 µM.
`Cc1ccc(NC(=O)C2CC(OC(=O)CN)CN2C(=O)OCC2c3ccccc3-c3ccccc32)cc1` [Compound 131, (S)-[4-(R)-(2-AMINO-ACETOXY)-2-P-TOLYLCARBAMOYL-PYRROLIDINE-1-CARBOXYLIC ACID 9H-FLUOREN-9-YLMETHYL ESTER]]: the IC50 is > 50 µM.
For the molecule `NCCCC[C@H](NC(=O)OCC1c2ccccc2-c2ccccc21)C(=O)Nc1ccncc1` [Compound 232, (S)-[5-AMINO-1-(PYRIDIN-4-YLCARBAMOYL)-PENTYL]-CARBAMIC ACID 9H-FLUOREN-9-YLMETHYL ESTER], the IC50 was > 50 µM.
For `COc1ccc(CNC(=O)N[C@@H](CCCCN)C(=O)Nc2ccc(C)cc2)cc1` [Compound 139, (S)-6-AMINO-2-[3-(4-METHOXY-BENZYL)-UREIDO]-HEXANOIC ACID P-TOLYLAMIDE], the IC50 is > 50 µM.
`Cc1ccc(NC(=O)C(Cc2c[nH]c3ccccc23)NC(=O)OCC2c3ccccc3-c3ccccc32)cc1` [Compound 378, (S)-[2-(1H-INDOL-3-YL)-1-P-TOLYLCARBAMOYL-ETHYL]-CARBAMIC ACID 9H-FLUOREN-9-YLMETHYL ESTER]: the IC50 was > 50 µM.
The value for `Cc1cc2cc(NC(=O)C(Cc3ccc(CN)cc3)NC(=O)Nc3ccc(-c4ccccc4)cc3)ccc2[nH]1` [Compound 234, (S)-3-(4-AMINOMETHYL-PHENYL)-2-(3-BIPHENYL-4-YL-UREIDO)—NR-(2-METHYL-1H-INDOL-5-YL)-PROPIONAMIDE] was 10 to 50 µM; that for `Cc1ccc(NC(=O)C(CCC(N)=O)NC(=O)OCC2c3ccccc3-c3ccccc32)cc1` [Compound 382, (R)-(3-CARBAMOYL-1-P-TOLYLCARBAMOYL-PROPYL)-CARBAMIC ACID 9H-FLUOREN-9-YLMETHYL ESTER] was > 50 µM; that for `Cc1ccc(NC(=O)CN(CCCCN)C(=O)OCC2c3ccccc3-c3ccccc32)cc1` [Compound 293, (4-AMINO-BUTYL)-(P-TOLYLCARBAMOYL-METHYL)-CARBAMIC ACID 9H-FLUOREN-9-YLMETHYL ESTER] was < 10 µM.
`NCCCC[C@H](NC(=O)Nc1ccc(OCc2ccccc2)cc1)C(=O)Nc1ccc2c(c1)CCC2` [Compound 283, (S)-6-AMINO-2-[3-(4-BENZYLOXY-PHENYL)-UREIDO]-HEXANOIC ACID INDAN-5-YLAMIDE] had an IC50 of 10 to 50 µM.
Take `CNc1ccc(NC(=O)[C@H](CCCCN)NC(=O)OCC2c3ccccc3-c3ccccc32)cc1` [Compound 209, (S)-[5-AMINO-1-(4-METHYLAMINO-PHENYLCARBAMOYL)-PENTYL]-CARBAMIC ACID 9H-FLUOREN-9-YLMETHYL ESTER]: the IC50 was 10 to 50 µM.
On to `NCCCC[C@@H](NC(=O)OCC1c2ccccc2-c2ccccc21)C(=O)Nc1ccc(-c2ccccc2)cc1` [Compound 144, (R)-[5-AMINO-1-(BIPHENYL-4-YLCARBAMOYL)-PENTYL]-CARBAMIC ACID 9H-FLUOREN-9-YLMETHYL ESTER], for which the IC50 is < 10 µM.
Take `NCCCCC[C@H](NC(=O)OCC1c2ccccc2-c2ccccc21)C(=O)Nc1ccc(C2CCCCC2)cc1` [Compound 116, (S)-[6-AMINO-1-(4-CYCLOHEXYL-PHENYLCARBAMOYL)-HEXYL]-CARBAMIC ACID 9H-FLUOREN-9-YLMETHYL ESTER]: the IC50 is < 10 µM.
In the case of `NCCCC[C@H](NC(=O)Cn1cnc2c(NC(=O)c3ccccc3)ncnc21)C(=O)N(Cc1ccccc1)C1CCCCC1` [Compound 88, (S)-N-(9-{[5-AMINO-1-(BENZYL-CYCLOHEXYL-CARBAMOYL)-PENTYLCARBAMOYL]-METHYL}-9H-PURIN-6-YL)-BENZAMIDE], the IC50 is > 50 µM.
In turn, `NCCCC[C@H](NC(=O)OCC1c2ccccc2-c2ccccc21)C(=O)Nc1ccc2c(c1)CCC2` [Compound 81, (S)-[5-AMINO-1-(INDAN-5-YLCARBAMOYL)-PENTYL]-CARBAMIC ACID 9H-FLUOREN-9-YLMETHYL ESTER] yielded an IC50 of 10 to 50 µM.

Values taken from US20070021434A1, “NON-NUCLEOSIDE ANTI-HEPACIVIRUS AGENTS AND USES THEREOF” (Migenix Inc., priority 2005, published 2007).
